“And” between values parts separate entries of the source, which are not always exact repeats. Equal entries are not always repeated.
Legend:
HCoV-OC43 = experiment: MTT test, HCoV-OC43 in Vero-76 cells; assay type: cell-based; conditions: Betacoronavirus 1, OC43, Vero 76, read-out: IC50 (HCoV-OC43)
[1] = Chronic toxicity, intranasal administration, rats; assay type: in vivo; conditions: repeated administration for 14 days, 10-200 mg/kg
[2] = Acute toxicity, intravenous administration, mice; conditions: both sexes, mouse, in vivo, Mice (M/F)
[3] = Acute toxicity, topical application, mice; assay type: in vivo; conditions: for LD50: acute toxicity, topical application
SARS-COV-2 PV10734 = experiment: Penetration assay in Vero cells; assay type: cell-based; conditions: at higher concentrations
Method: A penetration assay was performed with small modifications according to the method reported earlier ([Chang et al., 2012]). A 24-well tissue culture plate was seeded with Vero cells (3 × 10^5 cells/well), which were then incubated overnight at 37°C in a 5% CO2 atmosphere. The cells were pre-chilled on ice for 1 h, and the medium was removed. The cells were infected with 100 PFU of SARS-CoV-2 PV10734 on ice for 2 h. The medium containing the unbound virus was then removed. Various concentrations of PDSTP (100–0.8 μM) in the medium were added, and the cells were incubated at 37°C for 1 h to trigger endocytosis of the virus. The infected cells were then treated with alkaline PBS (pH 11) for 1 min to inactivate viruses that had not penetrated the cells. Acidic PBS (pH 3) was then added to neutralize the mixture. The neutralized medium was removed; the cells were overlaid with methylcellulose in media and then were incubated at 37°C. After the 72-h incubation period, the cells were stained, and the plaques were determined by counting.

[4] = Reproductive toxicity: embryotoxicity study; assay type: in vivo, white laboratory rats; conditions: 10% solution, daily topical application, days 6 to 19 of gestation
From the text: (§1) PDSTP doses tested: 10% solution
(§2) Test subjects: white laboratory rats of both sexes
Pregnant rats from 6 to 19 days of gestation received daily topical application of PDSTP on 5% of the body surface area (3x5 cm area).

[5] = tested on: SARS-CoV-2 clinical isolate VR PV10734; experiment: Plaque reduction assay, SARS-CoV-2 VR PV10734 in Vero E6 cells; assay type: cell-based; conditions: Severe acute respiratory syndrome coronavirus 2, Vero C1008, mean ± SD, read-out: Antiviral activity IC50 against coronaviruses, SARS-CoV-2 clinical isolate VR PV10734, PR
Method: Vero E6 cells were incubated in the presence of PDSTP and reference compounds (100.0, 20.0, 4.0, and 0.8 μM concentrations) for 1 h at 37°C in a 5% CO2 and then infected for 1 h with 250 μL of the corresponding virus (SARS-CoV-2 PV10734 or HCoV-229E) dilutions to obtain 50–100 PFU/well. The plates were then incubated for 1 h at 37°C in a 5% CO2 atmosphere. Following the removal of the unabsorbed virus, 400 μL of the medium (D-MEM with L-glutamine, 4,500 mg/L D-glucose, and 1% inactivated FBS) containing 0.75% methyl-cellulose (M0512, viscosity 4,000 cP, Sigma-Aldrich, United States) and the serial dilutions of the compounds were added and incubated for 4 (SARS-CoV-2) or 2 (HCoV-229E) days at 37°C in a 5% CO2 atmosphere. Subsequently, the cells were fixed and stained with a 0.2% crystal violet solution (V5265, Sigma-Aldrich, United States) and then the number of plaques was calculated. The degree of cell growth/viability and viral multiplication at each drug concentration tested was expressed as a percentage of the untreated control. Concentrations resulting in 50% inhibition (CC50 or EC50) were determined using linear regression analysis.

[6] = Cytotoxicity (MTT test) in Vero E6 cell line; assay type: cell-based, African Green Monkey (Cercopithecus aethiops); conditions: African green monkey, mean ± SD, three independent experiments
Method: The microtetrazolium test (MTT test) was used to study the cytotoxicity of the compounds. Vero cells were seeded in 96-well plates at an initial density of 3×10^5 cells/mL, in Gibco Dulbecco’s Modified Eagle Medium supplemented with L-glutamine and 25 mg/L kanamycin, and 10 % fetal bovine serum (FBS) (DMEM, Thermo Fisher Scientific, Waltham, MA USA). Cell cultures were then incubated at 37 °C in a 5 % CO2 atmosphere, in the absence or presence of serial dilutions of test compounds. The test medium used for the cytotoxic assay as well as for the antiviral assay contained 1 % of the appropriate serum. Cell viability was determined after 72 h at 37 °C by the MTT method as previously reported. The cell viability was expressed as a percentage of the control. The 50% cytotoxic concentration (CC50) of each compound was defined as the concentration of the compound that reduced the absorbance (OD570) of the treated cells to 50% when compared with that of untreated cells. CC50 mean values were calculated from at least three independent experiments.

[7] = Allergenicity study, delayed-type hypersensitivity, mice; assay type: in vivo; conditions: SWA x C57BL/6 mice
[8] = tested on: SARS-CoV-2 B.1.1 GR MM1/2020/Aug-21 clinical isolate; experiment: Golden Syrian hamster model of SARS-CoV-2-induced pneumonia; assay type: in vivo; conditions: for Body weight: day 0
[9] = tested on: SARS-CoV-2 clinical isolate 35245; experiment: Plaque reduction assay, SARS-CoV-2 35245; assay type: cell-based; conditions: Severe acute respiratory syndrome coronavirus 2, read-out: Antiviral activity IC50 against coronaviruses, SARS-CoV-2 clinical isolate 35245, PR
[10] = Acute toxicity, intravenous administration, rats; conditions: both sexes, rat, in vivo, Rats (M/F)
[11] = tested on: herpes simplex epithelial keratitis; parameters: method as in Alimbarova et al., 2022; conditions: rabbit model; ref Alimbarova et al., 2022; cited from earlier work
[12] = Reproductive toxicity: postnatal development of F1 generation offspring; assay type: in vivo, white laboratory rats; conditions: female rats received PDSTP from the 6th day of gestation to delivery
Method: as §1, §2
During the study of postnatal development and fertility of F1 generation offspring born from female rats that received PDSTP from the 6th day of gestation to delivery, the rates of physical development, the rate of maturation of sensory-motor reflexes and emotional-motor behavior, as well as fertility were evaluated in comparison with rats born from intact females.

[13] = 10 mg/kg, severity score 0 to 6

Cc1nc(N2CC[N+]3(CC2)CC[N+]2(CCNCC2)CC3)c([N+](=O)[O-])c(N2CC[N+]3(CC2)CC[N+]2(CCNCC2)CC3)n1.Cl.Cl.O.O.O.O.O.O.O.O.O.[Cl-].[Cl-].[Cl-].[Cl-] [PDSTP, 3,3′-(2-methyl-5-nitropyrimidine-4,6-diyl)bis-3,12-diaza-6,9-diazonia-dispiro[5.2.5.2]hexadecane tetrachloride dihydrochloride nonahydrate]
IC50 (HCoV-OC43): 0.7 ± 0.4 µM
Toxic effect on organs and systems [1]: toxic effect on organs and systems was not revealed
LD50 [2]: 150 mg/kg
LD50 [3]: greater than 31.25 mg/cm^2
Toxicity and local irritant effects on skin ([3]; maximum regulated amount applied to the skin): No manifestations of toxicity and local irritant effects were observed
LD50 ([3]; mouse, in vivo, topical or ocular, 2500 mg/kg, read-out: LD50): > 2500 mg/kg
Viral inhibition, penetration experiment (SARS-COV-2 PV10734): only modest viral inhibition
Embryotoxic effect [4]: no adverse embryotoxic effect
IC50 [5]: 1.8 ± 0.3 µM
CC50 at 72 h [6]: 183 ± 40.5 µM
Delayed-type hypersensitivity [7]: No delayed-type hypersensitivity was detected
Animals with completely reduced SARS-CoV-2-induced lung pathology ([8]; 10 mg/kg): three
Body weight ([8]; 10 mg/kg): 100,7±0,3 gram
Animals with lung severity score "mild" [8, 13]: two
Animals with lung severity score "none" [8, 13]: three out of six
Animals with completely reduced SARS-CoV-2-induced lung pathology ([8]; 20 mg/kg): two
Body weight ([8]; 20 mg/kg): 94,1±0,4 gram
Body weight ([8]; 40 mg/kg): 96,7±0,3 gram
Alveolar edema (histopathology) ([8]; 10 or 20 mg/kg): moderate
Reduction in lung viral titer vs negative control ([8]; […], not statistically significant): 1.5 log10
Reduction of viral RNA copy levels in lung tissue vs vehicle ([8]; […], statistically non-significant): 2.2 log10
Core body temperature ([8]; all animal groups): within the normal range
Mortality ([8]; all animal groups): None of the animals died
Body weight loss ([8]; hamster, in vivo): no more than 10%
Reduction of viral RNA copy levels in lung tissue vs vehicle ([8]; hamster, in vivo): 1.6 log10 and 2.0 log10
Viral RNA copy levels in turbinate tissue ([8]; hamster, in vivo): statistically significantly diminished
IC50 [9]: 21.4 ± 7.4 µM
LD50 [10]: 140 mg/kg
Reduction of mean progression and corneal lesions [11]: comparable to traditional aciclovir
Effect on fertility of F1 generation offspring [12]: No statistically significant effect
Effect on postnatal development of F1 generation offspring [12]: does not adversely affect the studied parameters

From publication PMC11931052, “Efficacy of dispirotripiperazine PDSTP in a golden Syrian hamster model of SARS-CoV-2 infection” (Frontiers in Microbiology, 2025)
